Patent US9271978B2 (Zenith Epigenetics Corp., priority 2012, dated 2016)

Legend:
[1] = system: hIL-6 mRNA; assay: Inhibition of hIL-6 mRNA transcription in U937 cells; format: cell-based, human; set-up: key: Active: Compounds with an IC50 value less than 30 μM were deemed to be active.; Not Active: Compounds with an IC50 value less than 30 μM were deemed to be active; details: LPS stimulation, active = IC50 <30 μM
Outline: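 U937 cells differentiated 3 days with 60 ng/mL PMA, pretreated 1 h with compound, then stimulated with 1 ug/mL E. coli LPS for 3 h at 37° C. hIL-6 mRNA quantified by one-step qRT-PCR, Ct normalized to internal control, expressed as fold induction relative to control.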

[2] = system: c-myc; assay: Inhibition of c-myc expression in MV4-11 cells (mRNA, real-time PCR); format: cell-based; set-up: key: Active: Compounds with an IC50 value less than 30 μM were deemed to be active.; Not Active: Compounds with an IC50 value less than 30 μM were deemed to be active; details: Human AML MV4-11 cells, 3 h incubation
Outline: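 MV4-11 cells (2.5×10^4) treated with compound or 0.1% DMSO for 3 h at 37 °C. c-myc mRNA measured by RT real-time PCR duplexed with cyclophilin. IC50 from dose–response curve.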

[3] = molecular target: T1, Brd4 bromodomain 1 (BRD4(1)) (Homo sapiens, UniProt O60885); assay: Inhibition of tetra-acetylated histone H4 binding to Brd4 bromodomain 1 (TR-FRET); set-up: key: Active: Compounds with an IC50 value less than 30 μM were deemed to be active.; Not Active: Compounds with an IC50 value less than 30 μM were deemed to be active; details: tetra-acetylated histone H4 peptide, active = IC50 <30 μM
T1 construct: Illustrative results with the first bromodomain of Brd4; made in house; host or cells: E. coli BL21 (DE3)
Outline: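 N-terminally His-tagged bromodomains (200 nM), expressed in E. coli, were incubated with biotinylated tetra-acetylated histone H4 peptide (25-50 nM), Eu-cryptate streptavidin and XL665 anti-His antibody in HEPES pH 7.4 buffer with KF, 0.2% DMSO, 2 h at room temperature. Inhibition read as decreased 665/620 nm TR-FRET; IC50 from dose-response curves.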

[4] = system: human AML MV-4-11 (CRL-9591) cells; assay: Inhibition of cell proliferation in MV4-11 cells; format: cell-based; set-up: key: Active: Compounds with an IC50 value less than 30 μM were deemed to be active.; Not Active: Compounds with an IC50 value less than 30 μM were deemed to be active; details: human AML MV-4-11 cells, 72 h; active = IC50 <30 μM
Outline: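 Exponentially growing MV-4-11 cells (5×10^4/well) were treated immediately with two-fold dilutions of compound from 30 μM to 0.2 μM, in triplicate, for 72 h at 37° C, 5% CO2. Viability was measured by MTS absorbance at 490 nm after 3–4 h. Proliferation relative to DMSO after blank correction gave IC50.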

[5] = system: ApoA-I mRNA; assay: Up-regulation of hApoA-1 mRNA transcription in Huh7 cells; format: cell-based, human; set-up: key: Active: Compounds with an EC170 value less than 30 μM were deemed to be active; details: 48 h treatment, ApoA-I mRNA by real-time PCR, Active = EC170 less than 30 μM
Description: In this example, ApoA-I mRNA in tissue culture cells was quantitated to measure the transcriptional up-regulation of ApoA-I when treated with a compound of the present disclosure.
Huh7 cells (2.5×10^5 per well) were plated in a 96-well plate using 100 μL DMEM per well, (Gibco DMEM supplemented with penicillin/streptomycin and 10% FBS), 24 h before the addition of the compound of interest. After 48 h treatment, the spent media was removed from the Huh-7 cells and placed on ice (for immediate use) or at −80° C. (for future use) with the “LDH cytotoxicity assay Kit II” from Abcam. The cells remaining in the plate were rinsed with 100 μL PBS.
Then 85 μL of cell lysis solution was added to each well and incubated for 5-10 min at room temperature, to allow for complete cell lysis and detachment. mRNA was then prepared using the “mRNA Catcher PLUS plate” from Life Technologies, according to the protocol supplied. After the last wash, as much wash buffer as possible was aspirated without allowing the wells to dry. Elution Buffer (E3, 80 μL) was then added to each well. mRNA was then eluted by incubating the mRNA Catcher PLUS plate with Elution Buffer for 5 min at 68° C., and then 1 min at 4° C. Catcher plates with mRNA eluted were kept on ice for use or stored at −80° C.
The eluted mRNA isolated was then used in a one-step real-time PCR reaction, using components of the Ultra Sense Kit together with Life Technologies primer-probe mixes. Real-time PCR data was analyzed, using the Ct values, to determine the fold induction of each unknown sample, relative to the control (that is, relative to the control for each independent DMSO concentration).
Compounds with an EC170 value less than 30 μM were deemed to be active.

SMILES | IL-6 activity (IC50 <30 μM) [1] | c-myc activity (IC50 <30 μM) [2] | FRET activity (IC50 <30 μM) BRD4(1) [3] | Cell Proliferation activity (IC50 <30 μM) [4] | ApoA-1 activity (EC170 <30 μM) [5]
Cc1onc(CO)c1-c1cc(N)c(=O)n(Cc2ccc(Cl)cc2)c1 [Example 205, 3-Amino-1-(4-chlorobenzyl)-5-(3-(hydroxymethyl)-5-methylisoxazol-4-yl)pyridin-2(1H)-one] | Active | Active | Active | Active | Active
Cc1noc(C)c1-c1cc(N)c(=O)n(Cc2ccc(C(F)(F)F)cc2)c1 [Example 228, 3-amino-5-(3,5-dimethylisoxazol-4-yl)-1-(4-(trifluoromethyl)benzyl)pyridin-2(1H)-one] | Active | Active | Active | Active | Active
Cc1noc(C)c1-c1cc(Cl)c(=O)n(Cc2ccc(F)cc2)c1 [Example 181, 3-chloro-5-(3,5-dimethylisoxazol-4-yl)-1-(4-fluorobenzyl)pyridin-2(1H)-one] | Not Active | Active | Active | Not Active | Active
COc1ccc(Cn2cc(-c3c(C)noc3C)cc(N)c2=O)cc1 [Example 220, 3-amino-5-(3,5-dimethylisoxazol-4-yl)-1-(4-methoxybenzyl)pyridin-2(1H)-one] | Active | Active | Active | Active | Active
Cc1noc(C)c1-c1cc(N)c(=O)n(Cc2ccc(Cl)c(Cl)c2)c1 [Example 213, 3-amino-1-(3,4-dichlorobenzyl)-5-(3,5-dimethylisoxazol-4-yl)pyridin-2(1H)-one] | Active | Active | Active | Active | Active
Cc1noc(C)c1-c1cc(N)c(=O)n(Cc2ccc(Cl)cc2)n1 [Example 233, 4-amino-2-(4-chlorobenzyl)-6-(3,5-dimethylisoxazol-4-yl)pyridazin-3(2H)-one] | Active | Active | Active | Active | Active
Cc1noc(C)c1-c1cc(N)c(=O)n(Cc2ccc(C#N)cc2)c1 [Example 216, 4-((3-amino-5-(3,5-dimethylisoxazol-4-yl)-2-oxopyridin-1(2H)-yl)methyl)benzonitrile] | Active | Active | Active | Active | Active
Cc1noc(C)c1-c1cc(N)c(=O)n(Cc2ccc(Cl)cc2F)c1 [Example 206, 3-amino-1-(4-chloro-2-fluorobenzyl)-5-(3,5-dimethylisoxazol-4-yl)pyridin-2(1H)-one] | Active | Active | Active | Active | Active

Continued, in another order:

IL-6 activity (IC50 <30 μM) [1] | c-myc activity (IC50 <30 μM) [2] | FRET activity (IC50 <30 μM) BRD4(1) [3] | Cell Proliferation activity (IC50 <30 μM) [4] | SMILES | ApoA-1 activity (EC170 <30 μM) [5]
Active | Active | Active | Active | Cc1noc(C)c1-c1cc(Nc2cccnc2)c(=O)n(Cc2ccccc2)c1 [Example 194, 1-benzyl-5-(3,5-dimethylisoxazol-4-yl)-3-(pyridin-3-ylamino)pyridin-2(1H)-one] | Active
Active | Active | Active | Active | Cc1noc(C)c1-c1cc(NC2CCCC2)c(=O)n(Cc2ccccc2)c1 [Example 208, 1-benzyl-3-(cyclopentylamino)-5-(3,5-dimethylisoxazol-4-yl)pyridin-2(1H)-one] | Active
Active | Active | Active | Active | COc1cc(-c2c(C)noc2C)cn(Cc2ccccc2)c1=O [Example 210, 1-benzyl-5-(3,5-dimethylisoxazol-4-yl)-3-methoxypyridin-2(1H)-one] | Active
Active | Active | Active | Active | CCNc1cc(-c2c(C)noc2C)cn(Cc2ccccc2)c1=O [Example 186, 1-benzyl-5-(3,5-dimethylisoxazol-4-yl)-3-(ethylamino)pyridin-2(1H)-one] | Active
Not Active | Not Active | Active | Not Active | Cc1noc(C)c1-c1cc(C#N)c(=O)n(Cc2ccccc2)c1 [Example 198, 1-Benzyl-5-(3,5-dimethylisoxazol-4-yl)-2-oxo-1,2-dihydropyridine-3-carbonitrile] | Active
Active | Active | Active | Active | Cc1onc(CO)c1-c1cc(N)c(=O)n(Cc2ccccc2)c1 [Example 189, 3-Amino-1-benzyl-5-(3-(hydroxymethyl)-5-methylisoxazol-4-yl)pyridin-2(1H)-one] | Active
Active | Not Active | Not Active | Active | Cc1noc(C)c1-c1cc(Nc2ccccn2)c(=O)n(Cc2ccccc2)c1 [Example 193, 1-benzyl-5-(3,5-dimethylisoxazol-4-yl)-3-(pyridin-2-ylamino)pyridin-2(1H)-one] | Active
Not Active | Active | Active | Active | Cc1noc(C)c1-c1cc(N2CCOCC2)c(=O)n(Cc2ccccc2)c1 [Example 190, 1-benzyl-5-(3,5-dimethylisoxazol-4-yl)-3-morpholinopyridin-2(1H)-one] | Active
Active | Active | Active | Active | Cc1noc(C)c1-c1cc(O)c(=O)n(Cc2ccccc2)c1 [Example 209, 1-benzyl-5-(3,5-dimethylisoxazol-4-yl)-3-hydroxypyridin-2(1H)-one] | Active
